Measurements from patent US20050152857A1, “Method and preparation for reducing sunburn cell formation in skin” (PCR Technology Holdings, LC, priority 2004, published 2005).

Experiments:
[1] = system: sensitivity of skin to UV light; conditions: cited from earlier work
[2] = system: sunburn cells in human skin; experiment: 2-week human sun burn cell assay study with glycolic acid compositions (Formulas 4-5, 1.5 MED solar simulator); type: in vivo; conditions: compared with normal, untreated skin, UV-exposed
Description: The idebenone-containing Formula 4 and the placebo Formula 5 of Example 3 were applied to human skin in a 2-week human sun burn cell assay study.
The panel composition was six different healthy adult volunteers between the ages of 18 and 53. All were in excellent health, and without any significant internal or dermatological diseases. The subjects were carefully screened to insure they were not taking any medications.
The subjects were given detailed instructions to avoid any direct exposure to sunlight and to minimize any incidental exposure to their backs for the entire duration of the study. […]
The light source used was a 150 watt xenon arc solar simulator equipped with a UV reflecting diachronic mirror and a 1 mm thick Schott WG-320 filter to produce simulation of the solar spectrum. […] Total irradiance at skin level was measured with a calibrated Eppley Thermopile and the UVB component was monitored with a UVB radiometer (International Light Inc, Newburyport, Mass.). […]
Two days prior to the end of the study, the MED (minimal erythema dose) for each subject was determined by exposing several normal untreated skin sites over the midback area to a series of exposures in 25% dose increments from the solar simulator. […] The MED was recorded in the appropriate case record form. […]

Compound	sensitivity of skin to UV light, sunburn cell induction ([1]; 10% glycolic acid (pH 3.5) once daily, 6 days per week, 4 weeks, 1.5 MED, 29 Caucasian subjects)	duration of photosensitivity after terminating treatments ([1]; 10% glycolic acid (pH 3.5), after 4 weeks of treatment)	prevention of the increase in sun sensitivity / sunburn cell formation produced by 10 wt. % glycolic acid [2]
O=C(O)CO [glycolic acid]	enhanced sensitivity to UV light, including increased sunburn cell induction	reversed within a week of terminating treatments	–
COC1=C(OC)C(=O)C(CCCCCCCCCCO)=C(C)C1=O [idebenone, 6-(10-hydroxydecyl)-2,3-dimethoxy-5-methyl-1,4-benzoquinone]	–	–	prevented the increase in formation of sunburn cells
